According to PubChem BioAssay (NCI):
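Following 48 hours of exposure in 96-well plates, responses at five concentrations were used to interpolate endpoints linearly. GI50 marks 50% less growth. TGI is the concentration that stops growth completely.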

Assays:
Experiment in all cases: NCI-60 cell line screen, 48 h
K-562 leukemia = tested on: K-562 leukemia
RPMI-8226 leukemia = tested on: RPMI-8226 leukemia
EKVX NSCLC = tested on: EKVX NSCLC
DU-145 prostate = tested on: DU-145 prostate
A549 NSCLC = tested on: A549 NSCLC
LOX IMVI melanoma = tested on: LOX IMVI melanoma
CAKI-1 renal = tested on: CAKI-1 renal
M14 melanoma = tested on: M14 melanoma
SK-MEL-2 melanoma = tested on: SK-MEL-2 melanoma
MDA-MB-435 = tested on: MDA-MB-435
HCT-15 colon = tested on: HCT-15 colon
MOLT-4 leukemia = tested on: MOLT-4 leukemia
PC-3 prostate = tested on: PC-3 prostate
SR leukemia = tested on: SR leukemia
UO-31 renal = tested on: UO-31 renal
UACC-257 melanoma = tested on: UACC-257 melanoma
HOP-62 NSCLC = tested on: HOP-62 NSCLC
U251 CNS = tested on: U251 CNS
BT-549 breast = tested on: BT-549 breast
SNB-19 CNS = tested on: SNB-19 CNS
NCI-H460 lung = tested on: NCI-H460 lung
SK-MEL-28 melanoma = tested on: SK-MEL-28 melanoma
SW-620 colon = tested on: SW-620 colon
SK-OV-3 ovarian = tested on: SK-OV-3 ovarian
NCI-H226 lung = tested on: NCI-H226 lung
SN12C renal = tested on: SN12C renal
HCT-116 colon = tested on: HCT-116 colon
SF-539 CNS = tested on: SF-539 CNS
HS 578T breast = tested on: HS 578T breast
SK-MEL-5 melanoma = tested on: SK-MEL-5 melanoma
SF-295 CNS = tested on: SF-295 CNS
MDA-MB-231 breast = tested on: MDA-MB-231 breast
NCI-H522 lung = tested on: NCI-H522 lung
NCI-H23 lung = tested on: NCI-H23 lung
OVCAR-8 ovarian = tested on: OVCAR-8 ovarian
SNB-75 CNS = tested on: SNB-75 CNS
ACHN renal = tested on: ACHN renal
NCI/ADR-RES ovarian = tested on: NCI/ADR-RES ovarian
KM12 colon = tested on: KM12 colon
TK-10 renal = tested on: TK-10 renal
T-47D breast = tested on: T-47D breast
CCRF-CEM leukemia = tested on: CCRF-CEM leukemia
OVCAR-5 ovarian = tested on: OVCAR-5 ovarian
HL-60(TB) leukemia = tested on: HL-60(TB) leukemia
IGROV1 ovarian = tested on: IGROV1 ovarian
HT29 colon = tested on: HT29 colon
SF-268 CNS = tested on: SF-268 CNS
MALME-3M melanoma = tested on: MALME-3M melanoma
COLO 205 colon = tested on: COLO 205 colon
HOP-92 NSCLC = tested on: HOP-92 NSCLC
OVCAR-3 ovarian = tested on: OVCAR-3 ovarian
OVCAR-4 ovarian = tested on: OVCAR-4 ovarian
786-0 renal = tested on: 786-0 renal
UACC-62 melanoma = tested on: UACC-62 melanoma
A498 renal = tested on: A498 renal
MCF7 breast = tested on: MCF7 breast
HCC-2998 colon = tested on: HCC-2998 colon

Question: Which results are given for `CC1=CC(C)=N/C(=N/S(=O)(=O)c2cc(C)c(Cl)cc2SCc2ccccc2)NN1`?
Answer: GI50 (K-562 leukemia): > 100 µM; TGI (K-562 leukemia): > 100 µM; GI50 (RPMI-8226 leukemia): > 100 µM; TGI (RPMI-8226 leukemia): > 100 µM; GI50 (EKVX NSCLC): 98.6 µM; TGI (EKVX NSCLC): > 100 µM; GI50 (DU-145 prostate): > 100 µM; TGI (DU-145 prostate): > 100 µM; GI50 (A549 NSCLC): > 100 µM; TGI (A549 NSCLC): > 100 µM; GI50 (LOX IMVI melanoma): > 100 µM; TGI (LOX IMVI melanoma): > 100 µM; GI50 (CAKI-1 renal): > 100 µM; TGI (CAKI-1 renal): > 100 µM; GI50 (M14 melanoma): > 100 µM; TGI (M14 melanoma): > 100 µM; GI50 (SK-MEL-2 melanoma): > 100 µM; TGI (SK-MEL-2 melanoma): > 100 µM; GI50 (MDA-MB-435): > 100 µM; TGI (MDA-MB-435): > 100 µM; GI50 (HCT-15 colon): > 100 µM; TGI (HCT-15 colon): > 100 µM; GI50 (MOLT-4 leukemia): > 100 µM; TGI (MOLT-4 leukemia): > 100 µM; GI50 (PC-3 prostate): > 100 µM; TGI (PC-3 prostate): > 100 µM; GI50 (SR leukemia): > 100 µM; TGI (SR leukemia): > 100 µM; GI50 (UO-31 renal): > 100 µM; TGI (UO-31 renal): > 100 µM; GI50 (UACC-257 melanoma): > 100 µM; TGI (UACC-257 melanoma): > 100 µM; GI50 (HOP-62 NSCLC): 82.5 µM; TGI (HOP-62 NSCLC): > 100 µM; GI50 (U251 CNS): 82.3 µM; TGI (U251 CNS): > 100 µM; GI50 (BT-549 breast): > 100 µM; TGI (BT-549 breast): > 100 µM; GI50 (SNB-19 CNS): > 100 µM; TGI (SNB-19 CNS): > 100 µM; GI50 (NCI-H460 lung): > 100 µM; TGI (NCI-H460 lung): > 100 µM; GI50 (SK-MEL-28 melanoma): > 100 µM; TGI (SK-MEL-28 melanoma): > 100 µM; GI50 (SW-620 colon): > 100 µM; TGI (SW-620 colon): > 100 µM; GI50 (SK-OV-3 ovarian): > 100 µM; TGI (SK-OV-3 ovarian): > 100 µM; GI50 (NCI-H226 lung): > 100 µM; TGI (NCI-H226 lung): > 100 µM; GI50 (SN12C renal): > 100 µM; TGI (SN12C renal): > 100 µM; GI50 (HCT-116 colon): > 100 µM; TGI (HCT-116 colon): > 100 µM; GI50 (SF-539 CNS): 81.1 µM; TGI (SF-539 CNS): > 100 µM; GI50 (HS 578T breast): > 100 µM; TGI (HS 578T breast): > 100 µM; GI50 (SK-MEL-5 melanoma): > 100 µM; TGI (SK-MEL-5 melanoma): > 100 µM; GI50 (SF-295 CNS): > 100 µM; TGI (SF-295 CNS): > 100 µM; GI50 (MDA-MB-231 breast): > 100 µM; TGI (MDA-MB-231 breast): > 100 µM; GI50 (NCI-H522 lung): 96.6 µM; TGI (NCI-H522 lung): > 100 µM; GI50 (NCI-H23 lung): > 100 µM; TGI (NCI-H23 lung): > 100 µM; GI50 (OVCAR-8 ovarian): > 100 µM; TGI (OVCAR-8 ovarian): > 100 µM; GI50 (SNB-75 CNS): 32.5 µM; TGI (SNB-75 CNS): > 100 µM; GI50 (ACHN renal): > 100 µM; TGI (ACHN renal): > 100 µM; GI50 (NCI/ADR-RES ovarian): > 100 µM; TGI (NCI/ADR-RES ovarian): > 100 µM; GI50 (KM12 colon): > 100 µM; TGI (KM12 colon): > 100 µM; GI50 (TK-10 renal): > 100 µM; TGI (TK-10 renal): > 100 µM; GI50 (T-47D breast): > 100 µM; TGI (T-47D breast): > 100 µM; GI50 (CCRF-CEM leukemia): > 100 µM; TGI (CCRF-CEM leukemia): > 100 µM; GI50 (OVCAR-5 ovarian): > 100 µM; TGI (OVCAR-5 ovarian): > 100 µM; GI50 (HL-60(TB) leukemia): > 100 µM; TGI (HL-60(TB) leukemia): > 100 µM; GI50 (IGROV1 ovarian): > 100 µM; TGI (IGROV1 ovarian): > 100 µM; GI50 (HT29 colon): > 100 µM; TGI (HT29 colon): > 100 µM; GI50 (SF-268 CNS): 78.1 µM; TGI (SF-268 CNS): > 100 µM; GI50 (MALME-3M melanoma): > 100 µM; TGI (MALME-3M melanoma): > 100 µM; GI50 (COLO 205 colon): > 100 µM; TGI (COLO 205 colon): > 100 µM; GI50 (HOP-92 NSCLC): 17.9 µM; TGI (HOP-92 NSCLC): 62.8 µM; GI50 (OVCAR-3 ovarian): > 100 µM; TGI (OVCAR-3 ovarian): > 100 µM; GI50 (OVCAR-4 ovarian): 79.1 µM; TGI (OVCAR-4 ovarian): > 100 µM; GI50 (786-0 renal): > 100 µM; TGI (786-0 renal): > 100 µM; GI50 (UACC-62 melanoma): > 100 µM; TGI (UACC-62 melanoma): > 100 µM; GI50 (A498 renal): > 100 µM; TGI (A498 renal): > 100 µM; GI50 (MCF7 breast): > 100 µM; TGI (MCF7 breast): > 100 µM; GI50 (HCC-2998 colon): > 100 µM; TGI (HCC-2998 colon): > 100 µM
